From ChEMBL document CHEMBL5137098, “Discovery of Substituted Di(pyridin-2-yl)-1,2,4-thiadiazol-5-amines as Novel Macrofilaricidal Compounds for the Treatment of Human Filarial Infections” (J Med Chem, 2022)

How the values were obtained:
[1] = Metabolic stability in human liver S9 fraction assessed as compound remaining at 3 uM measured at 60 mins by LC-MS/MS analysis; assay type: ADME, subcellular; conditions: read-out: Stability
[2] = Metabolic stability in rat liver S9 fraction assessed as compound remaining at 3 uM measured at 60 mins by LC-MS/MS analysis; assay type: ADME, subcellular; conditions: read-out: Stability
[3] = tested on: TK6; test: Cytotoxicity in human TK6 cells in presence of Aroclor 1254-induced rat liver S9 fraction by micronucleus test; assay type: toxicity, cell-based
[4] = Mutagenicity in Salmonella typhimurium TA100 in absence of liver S9 fraction by AMES test; assay type: toxicity; conditions: salmonella enterica subsp. enterica serovar typhimurium
[5] = Mutagenicity in Escherichia coli WP2 uvrA in absence of liver S9 fraction by AMES test; assay type: toxicity
[6] = Mutagenicity in Salmonella typhimurium TA97 in presence of liver S9 fraction by AMES test; assay type: toxicity, subcellular; conditions: salmonella enterica subsp. enterica serovar typhimurium
[7] = Mutagenicity in Escherichia coli WP2 uvrA in presence of liver S9 fraction by AMES test; assay type: toxicity, subcellular
[8] = Mutagenicity in Salmonella typhimurium TA1535 in presence of liver S9 fraction by AMES test; assay type: toxicity, subcellular; conditions: salmonella enterica subsp. enterica serovar typhimurium
[9] = tested on: Litomosoides sigmodontis; test: Antiparasitic activity against Litomosoides sigmodontis infected in Meriones assessed as reduction in worm burden at 15 mg/kg, sc BID administered for 7 days; assay type: functional; parameters: scale not given: the % may be the effect or the level left; conditions: time 7 day
[10] = Mutagenicity in Salmonella typhimurium TA98 in presence of liver S9 fraction by AMES test; assay type: toxicity, subcellular; conditions: salmonella enterica subsp. enterica serovar typhimurium
[11] = Mutagenicity in Salmonella typhimurium TA100 in presence of liver S9 fraction by AMES test; assay type: toxicity, subcellular; conditions: salmonella enterica subsp. enterica serovar typhimurium
[12] = Mutagenicity in Salmonella typhimurium TA1535 in absence of liver S9 fraction by AMES test; assay type: toxicity; conditions: salmonella enterica subsp. enterica serovar typhimurium
[13] = Mutagenicity in Salmonella typhimurium TA97 in absence of liver S9 fraction by AMES test; assay type: toxicity; conditions: salmonella enterica subsp. enterica serovar typhimurium
[14] = Mutagenicity in Salmonella typhimurium TA98 in absence of liver S9 fraction by AMES test; assay type: toxicity; conditions: salmonella enterica subsp. enterica serovar typhimurium

| remaining at 1 h, 3 µM [1] | remaining at 1 h, 3 µM [2] | Structure (SMILES) | Activity [3] | Activity [4] | Activity [5] | Activity [6] | Activity [7] | Activity [8] | Activity [9] | Activity [10] | Activity [11] | Activity [12] | Activity [13] | Activity [14] |
| --- | --- | --- | --- | --- | --- | --- | --- | --- | --- | --- | --- | --- | --- | --- |
| 94% | 100% | Cc1nccnc1Nc1nc(-c2ccc(OC(C)C)cn2)ns1 | Non-Toxic |  |  |  |  |  |  |  |  |  |  |  |
|  |  | CC(=O)N(C)c1cccnc1Nc1nc(-c2ccc(OC(C)C)cn2)ns1 |  | Non-Toxic | Non-Toxic | Non-Toxic | Non-Toxic | Non-Toxic | 58.9% | Non-Toxic | Non-Toxic | Non-Toxic | Non-Toxic | Non-Toxic |
